{"source": "patent US20190388364A1", "about": "“[…] A LOCAL […]” (GRÜNENTHAL GMBH, priority 2017, published 2019)", "test_system": "guinea pig skin twitch response", "assay": "guinea pig skin test (skin twitch response, local anesthetic effect)", "type": "in vivo", "conditions": "for Stimuli per twitch response (means ± s.e.m.): max 20 stimuli; for number of animals with abrogated twitch response (max. effect): no twitch response after 20 stimuli", "experimental": "The local anesthetic effects of Tapentadol were studied in a guinea pig skin test.\nAnimals: Male Pirbright White guinea pigs from a commercial breeder (ca. 400 g body weights) were used for the study. The animals were housed under standard conditions: room temperature […], rel. air changes per hour, air movement <0.2 m/sec, light/dark rhythm (06.00-18.00 h light, 18.00-06.00 h dark). The animals had access to water ad libitum and to an exclusive diet of “Herilan RM 204” (Eggersmann Company, Rinteln/Germany). Before the experiment they lived in groups of 5-8 animals in type IV Makrolone cages (Ebeco Company, Castrop-Rauxel/Germany). There were at least five days between delivery of the animals and the test day.\nTapentadol (test compound was) dissolved in 0.9% NaCl solution. Application route: intradermal application. Application volume: 0.1 ml per application site. Concentrations: 0.05/0.01/0.3/0.5%.\nApplication route: intradermal application. Application volume: 0.1 ml per application site. Concentrations: 0.1/0.3/1.0.\nThe experiments were performed according to a modified method originally described by Bülbring and Wajda (J Pharm Exp Ther 85: 78-84, 1945). After erasure of the back of the animals 0.1 ml of solutions of the test compounds or of vehicle (0.9% NaCl) were injected intradermally. There were 3 injection sites each on both flanks of the back with a craniocaudal distance between them of 1.5 cm. A twitch response of the skin musculature was provoked by contact of these sites with the tip of an injection cannula. The number of the stimuli needed to provoke a twitch response was registered. A maximum of 20 stimuli per site was allowed. […] Thereafter, solution with different concentrations of the test compounds or vehicle were injected and the skin sensitivity was evaluated at 2, 5, 10, 15 and 20 min. The different test solutions were injected on both flanks of the back into the cranial, intermediate or caudal test site in a randomized order.\nTest parameter: Stimuli per twitch response.\nEach concentration of the test compounds was tested at 6-7 sites. The means±s.e.m. of stimuli that were necessary to induce a twitch response were calculated for the different times after application. In addition, number of tests with a complete abolition of skin sensitivity (i.e., no twitch response after 20 stimuli) was used to calculate an EC50-value (with 95% confidence limits) according to Litchfield and Wilcoxon.", "key": {"[1]": {"conditions": "0.1 wt.-% intradermal, 2 min after application"}, "[2]": {"conditions": "0.1 wt.-% intradermal, 5 min after application"}, "[3]": {"conditions": "0.1 wt.-% intradermal, 10 min after application"}, "[4]": {"conditions": "0.1 wt.-% intradermal, 15 min after application"}, "[5]": {"conditions": "0.1 wt.-% intradermal, 20 min after application"}, "[6]": {"conditions": "0.3 wt.-% intradermal, 2 min after application"}, "[7]": {"conditions": "0.3 wt.-% intradermal, 5 min after application"}, "[8]": {"conditions": "0.3 wt.-% intradermal, 10 min after application"}, "[9]": {"conditions": "0.3 wt.-% intradermal, 15 min after application"}, "[10]": {"conditions": "0.3 wt.-% intradermal, 20 min after application"}}, "data": [{"smiles": "CC[C@@H](c1cccc(O)c1)[C@@H](C)CN(C)C", "note": "[Tapentadol, (1R,2R)-3-(3-dimethylamino-1-ethyl-2-methyl-propyl)-phenol]", "values": [{"measurement": "Stimuli per twitch response (means ± s.e.m.)", "setting": "0.05 wt.-% intradermal, 0.1 ml per site, 2 min after application", "value": "6 ± 3"}, {"measurement": "Stimuli per twitch response (means ± s.e.m.)", "setting": "0.05 wt.-% intradermal, 5 min after application", "value": 1}, {"measurement": "Stimuli per twitch response (means ± s.e.m.)", "setting": "0.05 wt.-% intradermal, 10 min after application", "value": 1}, {"measurement": "Stimuli per twitch response (means ± s.e.m.)", "setting": "0.05 wt.-% intradermal, 15 min after application", "value": 1}, {"measurement": "Stimuli per twitch response (means ± s.e.m.)", "setting": "0.05 wt.-% intradermal, 20 min after application", "value": 1}, {"measurement": "number of animals with abrogated twitch response (max. effect)", "setting": "0.05 wt.-% intradermal", "value": "1 of 7"}, {"measurement": "Stimuli per twitch response (means ± s.e.m.)", "setting": "[1]", "value": "12 ± 4"}, {"measurement": "Stimuli per twitch response (means ± s.e.m.)", "setting": "[2]", "value": "2 ± 1"}, {"measurement": "Stimuli per twitch response (means ± s.e.m.)", "setting": "[3]", "value": 1}, {"measurement": "Stimuli per twitch response (means ± s.e.m.)", "setting": "[4]", "value": 1}, {"measurement": "Stimuli per twitch response (means ± s.e.m.)", "setting": "[5]", "value": 1}, {"measurement": "number of animals with abrogated twitch response (max. effect)", "setting": "0.1 wt.-% intradermal", "value": "3 of 6"}, {"measurement": "Stimuli per twitch response (means ± s.e.m.)", "setting": "[6]", "value": 20}, {"measurement": "Stimuli per twitch response (means ± s.e.m.)", "setting": "[7]", "value": 20}, {"measurement": "Stimuli per twitch response (means ± s.e.m.)", "setting": "[8]", "value": "4 ± 3"}, {"measurement": "Stimuli per twitch response (means ± s.e.m.)", "setting": "[9]", "value": "2 ± 1"}, {"measurement": "Stimuli per twitch response (means ± s.e.m.)", "setting": "[10]", "value": 1}, {"measurement": "number of animals with abrogated twitch response (max. effect)", "setting": "0.3 wt.-% intradermal", "value": "7 of 7"}, {"measurement": "Stimuli per twitch response (means ± s.e.m.)", "setting": "0.5 wt.-% intradermal, 2 min after application", "value": 20}, {"measurement": "Stimuli per twitch response (means ± s.e.m.)", "setting": "0.5 wt.-% intradermal, 5 min after application", "value": 20}, {"measurement": "Stimuli per twitch response (means ± s.e.m.)", "setting": "0.5 wt.-% intradermal, 10 min after application", "value": "10 ± 3"}, {"measurement": "Stimuli per twitch response (means ± s.e.m.)", "setting": "0.5 wt.-% intradermal, 15 min after application", "value": "3 ± 2"}, {"measurement": "Stimuli per twitch response (means ± s.e.m.)", "setting": "0.5 wt.-% intradermal, 20 min after application", "value": 1}, {"measurement": "number of animals with abrogated twitch response (max. effect)", "setting": "0.5 wt.-% intradermal", "value": "7 of 7"}, {"measurement": "time of maximum effect after application", "setting": "intradermal, 0.05 to 0.5%", "value": 2, "unit": "min"}, {"measurement": "local anesthetic effect at 20 min after application", "setting": "intradermal, up to the highest concentration (0.5%)", "value": "completely disappeared"}]}, {"smiles": "COc1cccc(C2(O)CCCCC2CN(C)C)c1", "note": "(centres unmarked) [Tramadol]", "values": [{"measurement": "Stimuli per twitch response (means ± s.e.m.)", "setting": "[1]", "value": 1}, {"measurement": "Stimuli per twitch response (means ± s.e.m.)", "setting": "[2]", "value": 1}, {"measurement": "Stimuli per twitch response (means ± s.e.m.)", "setting": "[3]", "value": 1}, {"measurement": "Stimuli per twitch response (means ± s.e.m.)", "setting": "[4]", "value": 1}, {"measurement": "Stimuli per twitch response (means ± s.e.m.)", "setting": "[5]", "value": 1}, {"measurement": "Stimuli per twitch response (means ± s.e.m.)", "setting": "[6]", "value": "8 ± 3"}, {"measurement": "Stimuli per twitch response (means ± s.e.m.)", "setting": "[7]", "value": "6 ± 3"}, {"measurement": "Stimuli per twitch response (means ± s.e.m.)", "setting": "[8]", "value": "3 ± 2"}, {"measurement": "Stimuli per twitch response (means ± s.e.m.)", "setting": "[9]", "value": "3 ± 2"}, {"measurement": "Stimuli per twitch response (means ± s.e.m.)", "setting": "[10]", "value": "3 ± 2"}, {"measurement": "Stimuli per twitch response (means ± s.e.m.)", "setting": "1.0 wt.-% intradermal, 2 min after application", "value": 20}, {"measurement": "Stimuli per twitch response (means ± s.e.m.)", "setting": "1.0 wt.-% intradermal, 5 min after application", "value": 20}, {"measurement": "Stimuli per twitch response (means ± s.e.m.)", "setting": "1.0 wt.-% intradermal, 10 min after application", "value": 20}, {"measurement": "Stimuli per twitch response (means ± s.e.m.)", "setting": "1.0 wt.-% intradermal, 15 min after application", "value": "15 ± 3"}, {"measurement": "Stimuli per twitch response (means ± s.e.m.)", "setting": "1.0 wt.-% intradermal, 20 min after application", "value": "14 ± 3"}]}]}
